Reference: patent US20090163413A1, “DENTAL PRODUCTS COMPRISING BONE GROWTH ENHANCING PEPTIDE” (Acologix., Inc., priority 2000, published 2009)
No end group written: not given here.

Tested on: calvaria from 4-days-old mice
Experiment: Fetal mouse calvarial assay (mouse calvarial organ culture, histomorphometrical analysis of new bone area)
Assay type: cell-based
Conditions: assay terminated at day 7, FGF-1 as positive control
Experimental: FGF-1 was purchased from Peprotech Inc. (Rocky Hill, N.J.). RGD-1, 2, 3, 4, 5 and 6 (referred to here as D-00001, D-00002, D-00003, D-00004, D-00005 and D-00006) were provided by Dr. Nomizu (Hokkaido University, Japan).
Pregnant ICR mice were purchased from SLC Japan Co. Ltd. (Shizuoka, Japan).
Mouse calvarial organ culture was performed as described in Mundy G et al. Science 286: 1946-1949, 1999 and Traianedes K et al. Endocrinology 139: 3178-3184, 1998. The calvaria from 4-days-old mice were excised and cut in half along the sagittal suture. Each half of the calvaria was placed on a stainless steel grid in a 12-well tissue culture dish (Asahi Glass Techno Corp., Funabashi, Japan). Each well contained 1.5 ml of BGj medium (Sigma, St. Louis, Mo.) supplemented with 0.1% bovine serum albumin (Sigma) and each compound. FGF-1 was used as a positive control as described by Mundy et al. The medium was changed at day 1 and 4, and the assay was terminated at day 7.
Calvaria was fixed with 10% neutral-buffered formalin, decalcified with 4.13% EDTA and embedded in paraffin. […] sections were made and stained with hematoxylin and eosin. New bone area was measured using Image-Pro Plus (Media Cybernetics, Silver Spring, Md.).
The six peptides of Example 1 were tested for their ability to enhance bone growth with the tests being carried out as described above in Example 2.

Sequence: ERGDNDISPFSGDGQ (ERGDNDISPFSGDGQ-NH2) [D-00004]
- ability to enhance bone growth (new bone area): best results

Sequence: TDLQERGDNDISPFSGDGQPFKD [D-00006]
- ability to enhance bone growth (new bone area): best results
